Experimental data from patent US8268816B2, “Compounds for modulating integrin CD11b/CD18” (priority 2006, dated 2012).

Tests used:
integrin CD11b/CD18 = molecular target: T1, integrin CD11b/CD18 (Homo sapiens, UniProt P05107+P11215); assay: no-wash cell adhesion assay for agonists: K562 CD11b/CD18 cells on fibrinogen in TBS++; format: cell-based
T1 construct: expressed in transfected cells
Protocol: Maxisorp microtiter plates (96- and 384-well) were coated with 1-20 μg/mL fibrinogen (Fg) ligand in PBS^++ overnight at 4° C. Subsequently, the Fg-coated wells were washed with TBS and non-specific sites were blocked by incubation with 2% non-fat milk in TBS at room temperature for 30 min. Next, the wells were washed three times with TBS and the coated microtiter plates were used in the HTS assays.
All the adhesion assays were carried out in the screening facility at the Institute of Chemistry and Cell Biology (ICCB), Harvard Medical School using the available small molecule libraries and equipment. Actimol Timtec 1 small molecule library (6,612 compounds) has been previously described (http://iccb.med.harvard.edu/screening/compound_libraries). The small molecule library is stocked in 384-well plates at −80° C. and as sealed plates, with each well's containing a unique compound dissolved in DMSO at approximately 5 mg/mL. […] Adherent cells were quantitated using either cell viability measuring reagents or automated imaging (see below).
For quantitation of adherent cells using a cell viability measuring kit (such as MTS-based CellTiter-One (Promega), CyQuant (Molecular Probes) or Luciferase-based CellTiter-Glo (Promega)), the non-adherent cells were removed by complete aspiration using an automated liquid handling machine (ELx405, Bio-Tek Instruments, VT) and the assay reagent added according to manufacturer's instructions. For automated imaging based quantitation of adherent cells, the non-adherent cells were fixed by adding a small volume of formaldehyde (1.1% v/v final concentration) and the plates were kept inverted for an additional 1 h. Upon cell fixation, the wells were washed with TBS using automated liquid handling machine (ELx405) and the adherent cells were fluorescently labeled with DAPI (0.5 μM final in TBS with 0.1% TritonX-100) and quantitated using automated microscope (see below).
CellWorx automated microscope (Cellomics, Pa.) was set at 0.3 s exposure using DAPI filter set to capture 1-3 images per well. […] Data output files were analyzed using MS Excel. […]

[1] = test system: thioglycolate-induced peritonitis mouse model; assay: thioglycolate-induced peritonitis, neutrophil influx into the peritoneum; format: in vivo, C57BL6 mice; settings: 4 μg i.v. about 5 min after i.p. 4% thioglycolate, lavage at 12 h, flow cytometry
Protocol: The wild-type (WT) C57BL6 mice of approximately six weeks of age were purchased from Charles River Labs (Boston, Mass.). Mice were injected intraperitoneally with 1 mL of 4% w/v sterile thioglycolate (TG) (Sigma, St. Louis, […].) in PBS. Control mice were injected with PBS alone. Approximately five minutes after TG injection, 4 μg each of compounds IMB-8, -6 or -11 were administered in 0.5 mL PBS through a tail vein injection. Twelve hours post-injection, the percentage of infiltrated neutrophils in the peritoneal lavage was determined using flow cytometry. Cells from the lavage fluid were labeled with FITC-labeled anti-mouse GR1 and PE-labeled anti-mouse CD11b antibodies (BD Pharmingen, Jan Jose, Calif.) and analyzed using FACS Calibur flow cytometer.

integrin CD11a/CD18 = molecular target: T2, integrin CD11a/CD18 (Homo sapiens, UniProt P05107+P20701); assay: adhesion of K562 CD11a/CD18 cells to ICAM1-Fc in TBS++; format: cell-based; settings: dose-response, increasing amounts of small molecule
T2 construct: expressed in transfected cells; host or cells: K562 cells stably expressing CD11a/CD18
Protocol: Maxisorp microtiter plates (384-well) were coated with 1-20 μg/mL fibrinogen (Fg), 4 μg/mL iC3b or 0.375 μg/mL ICAM1-Fc ligands in PBS^++ overnight at 4° C.
For the adhesion assay in 384-well plates, the K562 cells were washed with TBS and cells (30,000/well) were transferred to the ligand-coated wells (Fg for CD11b/CD18 and ICAM1-Fc (R&D Systems, Minneapolis, Minn.) for CD11a/CD18) of microtiter plates in the assay buffer (TBS containing 1 mM each of Ca^2+ and Mg^2+ (TBS^++). Compounds were transferred to each well and the assay plates were incubated at 37° C. in the presence of small molecule compounds and were incubated with small molecules for 30 min. In order to dislodge the non-adherent cell, the assay plates were gently inverted and kept in the inverted position for 20 min at room temperature. Adherent cells were quantified using either cell viability measuring reagents or automated imaging (see below).

T1 sequence (P05107 23-769, other chains not shown): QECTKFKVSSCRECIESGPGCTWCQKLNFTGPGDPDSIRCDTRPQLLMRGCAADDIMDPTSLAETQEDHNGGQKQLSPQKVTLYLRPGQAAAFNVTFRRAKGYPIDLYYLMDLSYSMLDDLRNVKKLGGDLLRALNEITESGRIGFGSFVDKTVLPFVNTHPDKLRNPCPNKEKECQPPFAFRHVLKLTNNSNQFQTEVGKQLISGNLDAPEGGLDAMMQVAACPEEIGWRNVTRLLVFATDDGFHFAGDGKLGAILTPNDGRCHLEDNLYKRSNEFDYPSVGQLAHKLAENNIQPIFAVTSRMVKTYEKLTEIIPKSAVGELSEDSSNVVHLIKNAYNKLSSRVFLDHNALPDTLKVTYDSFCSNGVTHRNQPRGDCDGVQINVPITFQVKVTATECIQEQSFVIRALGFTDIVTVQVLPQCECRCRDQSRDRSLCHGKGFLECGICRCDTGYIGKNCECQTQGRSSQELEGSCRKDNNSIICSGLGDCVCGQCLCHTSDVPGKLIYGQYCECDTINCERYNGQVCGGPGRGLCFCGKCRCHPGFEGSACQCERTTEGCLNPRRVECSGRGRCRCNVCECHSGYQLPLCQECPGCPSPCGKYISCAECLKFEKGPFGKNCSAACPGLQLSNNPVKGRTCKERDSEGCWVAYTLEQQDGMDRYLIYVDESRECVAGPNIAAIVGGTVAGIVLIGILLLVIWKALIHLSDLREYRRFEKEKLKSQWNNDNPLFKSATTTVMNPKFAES
T2 sequence (P20701 26-1170): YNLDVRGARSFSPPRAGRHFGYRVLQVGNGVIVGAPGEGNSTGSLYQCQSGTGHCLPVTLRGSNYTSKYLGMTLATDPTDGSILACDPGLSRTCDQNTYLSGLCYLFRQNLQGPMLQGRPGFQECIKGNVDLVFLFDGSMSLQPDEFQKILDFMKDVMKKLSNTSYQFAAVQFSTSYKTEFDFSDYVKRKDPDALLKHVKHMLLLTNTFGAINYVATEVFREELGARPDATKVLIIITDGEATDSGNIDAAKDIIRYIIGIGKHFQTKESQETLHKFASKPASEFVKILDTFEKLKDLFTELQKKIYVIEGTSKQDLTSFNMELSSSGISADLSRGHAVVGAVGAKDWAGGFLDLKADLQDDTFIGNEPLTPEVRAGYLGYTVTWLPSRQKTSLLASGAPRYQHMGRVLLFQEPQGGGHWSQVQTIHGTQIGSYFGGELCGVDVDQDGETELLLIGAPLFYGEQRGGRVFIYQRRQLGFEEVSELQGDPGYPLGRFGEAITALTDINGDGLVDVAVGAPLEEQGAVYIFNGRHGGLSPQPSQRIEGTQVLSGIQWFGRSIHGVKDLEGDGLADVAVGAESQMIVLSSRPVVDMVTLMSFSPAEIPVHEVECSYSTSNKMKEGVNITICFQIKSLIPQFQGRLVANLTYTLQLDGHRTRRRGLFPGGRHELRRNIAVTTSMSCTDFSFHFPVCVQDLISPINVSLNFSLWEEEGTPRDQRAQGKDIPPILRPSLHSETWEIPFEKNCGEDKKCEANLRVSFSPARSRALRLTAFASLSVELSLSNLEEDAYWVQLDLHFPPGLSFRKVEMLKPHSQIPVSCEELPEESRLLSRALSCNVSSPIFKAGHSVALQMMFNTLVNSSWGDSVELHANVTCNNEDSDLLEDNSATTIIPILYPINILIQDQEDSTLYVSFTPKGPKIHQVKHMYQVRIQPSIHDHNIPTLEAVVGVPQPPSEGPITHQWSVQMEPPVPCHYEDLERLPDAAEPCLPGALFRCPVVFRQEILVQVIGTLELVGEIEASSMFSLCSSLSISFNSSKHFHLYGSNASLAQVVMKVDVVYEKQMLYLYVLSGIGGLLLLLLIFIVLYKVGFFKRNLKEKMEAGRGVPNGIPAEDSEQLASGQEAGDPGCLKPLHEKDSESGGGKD
T2 sequence (P05107 23-769): as the sequence (P05107 23-769, other chains not shown) above

O=C1CSC(NC(=O)N2c3ccccc3Sc3ccccc32)=N1 [Compound 11]
selectivity for integrin CD11b/CD18 over integrin CD11a/CD18 in cell adhesion (integrin CD11b/CD18; K562 CD11b/CD18 on fibrinogen versus K562 CD11a/CD18 on ICAM1): selectively increased adhesion
neutrophil influx into the peritoneum due to TG injection [1]: reduce leukocyte recruitment
neutrophil influx into the peritoneum due to TG injection ([1]; listed as compound 11): remarkable decrease

Cc1ccccc1N1C(=O)/C(=C/C=C/c2ccccc2)SC1=S [IMB-10, reference compound]
adhesion of K562 cells stably expressing integrin CD11b/CD18 to fibrinogen (integrin CD11b/CD18; dose-response, increasing amounts of small molecule, TBS++): increased equally well the adhesion
adhesion of K562 cells stably expressing integrin CD11a/CD18 to ICAM1 (integrin CD11a/CD18): increased equally well the adhesion

N=C1SC(=Cc2ccco2)C(=O)N1c1nccs1 [Compound 9]
EC50 (integrin CD11b/CD18; secondary screen, read-out: EC50, concentration required for half-maximal increase in cell-adhesion): ~6.7 µM
